Laboratory results as given in patent publication US20100279969A1, “AZIDO PURINE NUCLEOSIDES FOR TREATMENT OF VIRAL INFECTIONS” (priority 2007, published 2010).

Experiments:
[1] = tested on: HIV-1AZT7 (M41L/D67N/K70R/T215F/K219Q); test: Drug susceptibility assay against drug-resistant HIV, fold resistance; format: cell-based; settings: EC50 for mutant HIV-1 divided by EC50 for WT HIV-1
Protocol: At 48 h post-infection, a cell lysis buffer and luminescent substrate (Gal-Screen; Tropix/Applied Biosystems) was added to each well, and relative light unit values were determined using a luminometer (ThermoLabSystems, Waltham, Mass.).
Drug susceptibility assays were performed using the single- and multiple-replication-cycle assays also described above.

HIV-1 RT containing TAMS = settings: cited from earlier work
adenosine deaminase = format: in vitro ADME; settings: 7 minutes with 0.002 units of enzyme; 50 μM, pH 7.4, 25° C.
Protocol: To determine the propensity for deamination of the APN nucleosides by adenosine deaminase, compounds were incubated with the commercially available purified enzyme, and the reaction was followed spectrophotometrically. Reaction conditions were 50 mM potassium phosphate, pH 7.4, with 50 μM APN nucleoside in 0.5 mL at 25° C. Reaction time was 7 minutes with 0.002 units of enzyme and 120 minutes with 0.2 units of enzyme. (The unit definition of adenosine deaminase is one unit will deaminate 1.0 μmol of adenosine to inosine per minute at pH 7.5 at 25° C.) Deoxyadenosine was the positive control which was 59% deaminated under the given conditions in 7 minutes with 0.002 units of enzyme. Deoxyguanosine was the negative control. Optical density was measured at 265 nm or 285 nm. The difference in optical density between the beginning and the end of the experiment was divided by the extinction coefficient then multiplied by the volume of the reaction to determine the number of mols of substrate transformed into product. Mols of product were divided by mols of substrate equivalent to a 100% complete reaction then multiplied by 100 to obtain percent deamination. The limit of detection was 0.001 optical density units.

HepG2 cells = HepG2 cells incubated with 10 μM; cited from earlier work

## Cc1cn([C@H]2C[C@H](N=[N+]=[N-])[C@@H](CO)O2)c(=O)[nH]c1=O [AZT, 3′-azido-3′-deoxythymidine]
[1]
  fold resistance: > 500 fold

## Cc1cn([C@H]2C[C@H](N=[N+]=[N-])[C@@H](COP(=O)(O)O)O2)c(=O)[nH]c1=O [AZT-MP]
HIV-1 RT containing TAMS
  lower sensitivity of excision to inhibition by the next-correct dNTP than other NRTI analogs that lack a 3′-azido group: > 50 fold

## Nc1ncnc2c1ncn2[C@H]1C[C@H](O)[C@@H](CO)O1 [Deoxyadenosine]
Adenosine deaminase
  percent deamination: 59%

## O=c1[nH]c(=O)n([C@@H]2O[C@H](CO)[C@@H](O)[C@@H]2F)cc1I [fialuridine, 1,2′-deoxy-2′-fluoro-1-D-arabinofuranosly-5-iodo-uracil]
HepG2 cells
  mitochondrial morphology in electron micrographs: enlarged mitochondria with morphological changes consistent with mitochondrial dysfunction
